The data set concerns the target T1, 14-3-3-E (Rattus norvegicus, UniProt P62260).
T1 construct: isothermal dose–response (ITDR) CETSA curve of 14-3-3-E at 63 °C (B) in PC12^G93A cell lysate; endogenous in cells; host or cells: PC12-SOD1^G93A YFP cell lysate (freeze/thaw)
T1 sequence (P62260 1-255): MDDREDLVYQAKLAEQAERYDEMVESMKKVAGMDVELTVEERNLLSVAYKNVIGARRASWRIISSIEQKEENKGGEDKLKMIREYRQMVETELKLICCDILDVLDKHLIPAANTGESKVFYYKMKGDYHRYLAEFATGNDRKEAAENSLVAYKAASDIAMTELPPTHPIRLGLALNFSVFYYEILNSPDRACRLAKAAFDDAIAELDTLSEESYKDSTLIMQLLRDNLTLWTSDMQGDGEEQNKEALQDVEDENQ
As to the kind of experiment: Cellular thermal shift assay (CETSA) in PC12^G93A cell lysate. It is filed as binding. Conditions: n = 3. As to the method:
Before the experiments were initiated, PC12-SOD1^G93A YFP cells were maintained in DMEM high-glucose media supplemented with 10% horse serum, 5% Tet-approved FBS, 1% Pen-strep, 1X L-glutamine, 200 μg/mL hygromycin, and 100 μg/mL G418. On the day preceding the experiments, the cells were plated onto two separate 10 cm dishes at a concentration of 10 × 10^6 cells per 10 mL of the supplemented media. They were then incubated overnight at 37 °C in a CO2 incubator (5% CO2) until they achieved 90–95% confluency.
The cell medium was subsequently removed, and the cells were rinsed with 1X PBS before being detached using 1 mL of 1X trypsin. To this, 5 mL of 1X PBS solution was added, and the cells were then resuspended, transferred to two separate 15 mL conical tubes, and centrifuged at 1100 rpm for 3 min. The supernatant was discarded, and the cells were resuspended in 1 mL of 1X PBS containing a […] (EDTA-free) (Sigma-Aldrich, 1:100 v/v). […]
SDS PAGE was conducted using a 15-well Novex Bis-Tris 4–12% prepacked gel and 1X MES-SDS gel running buffer (comprising 50 mM MES, 50 mM Tris, 1 mM EDTA, and 0.1% SDS) at a constant voltage of […] over a duration of 2 h. […] These raw immunoblot images were analyzed by using ImageJ software. Data (expressed as relative band intensity %) were normalized relative to the samples that were incubated at the lowest temperature. […]

As for `O=c1cc(COc2cc(Cl)cc(Cl)c2)[nH][nH]1` [P2], the “CETSA melting curve: 14-3-3-E in the soluble fraction versus DMSO control” value (500 μM P2, cell lysate, difference between 60 and 64 °C, maximum at 63 °C) is given as “markedly reduced the presence of 14-3-3-E in the soluble fraction”. For the same molecule, the “ITDR CETSA: relative band intensity of 14-3-3-E in the soluble fraction” value (63 °C, increasing concentrations, cell lysate) is on record as “clear decrease in the relative band intensity of 14-3-3-E”.

For the origin of these results see paper PMC10823514, “Target Identification of a Class of Pyrazolone Protein Aggregation Inhibitor Therapeutics for Amyotrophic Lateral Sclerosis” (ACS Central Science, 2023).
